Measured values as given in ChEMBL document CHEMBL2016572, “Second-generation histone deacetylase 6 inhibitors enhance the immunosuppressive effects of Foxp3+ T-regulatory cells” (J Med Chem, 2012).
Active and inactive are the calls of the source. No cut-off for these calls is given here.

species: Homo sapiens; assay: Selectivity ratio of IC50 for human recombinant HDAC1 to IC50 for human recombinant HDAC6; details: not given

Row | SMILES | Ratio IC50
1 | O=C(NO)c1ccc(Cn2c3c(c4ccccc42)CCN(Cc2ccccc2)C3)cc1 | 4950
2 | O=C(NO)c1ccc(Cn2c3c(c4ccccc42)CN(Cc2ccncc2)CC3)cc1 | 4710
3 | O=C(NO)c1ccc(Cn2c3c(c4ccccc42)CCNC3)cc1 | 3900
4 | CC(C)(C)OC(=O)N1CCc2c(c3ccccc3n2Cc2ccc(C(=O)NO)cc2)C1 | 3830
5 | CN1CCc2c(c3cc(Br)ccc3n2Cc2ccc(C(=O)NO)cc2)C1 | 606
6 | O=C(NO)c1ccc(Cn2c3c(c4ccccc42)CNCC3)cc1 | 2500
7 | CN1CCc2c(c3cc(C(C)(C)C)ccc3n2Cc2ccc(C(=O)NO)cc2)C1 | 626
8 | NC(=O)CCN1CCc2c(c3ccccc3n2Cc2ccc(C(=O)NO)cc2)C1 | 3510
9 | CN1CCc2c(c3cc(Cl)ccc3n2Cc2ccc(C(=O)NO)cc2)C1 | 1000
10 | NC(=O)CN1CCc2c(c3ccccc3n2Cc2ccc(C(=O)NO)cc2)C1 | 4980
11 | COc1cccc(CN2CCc3c(c4ccccc4n3Cc3ccc(C(=O)NO)cc3)C2)c1 | 1750

target: T1, Protein deacetylase HDAC6 (Homo sapiens, UniProt Q9UBN7); assay: Inhibition of human recombinant HDAC6 using RHKKAc peptide as substrate incubated for 5 to mins prior to substrate addition measured after 2 hrs; details: not given
T1 sequence (Q9UBN7 whole entry): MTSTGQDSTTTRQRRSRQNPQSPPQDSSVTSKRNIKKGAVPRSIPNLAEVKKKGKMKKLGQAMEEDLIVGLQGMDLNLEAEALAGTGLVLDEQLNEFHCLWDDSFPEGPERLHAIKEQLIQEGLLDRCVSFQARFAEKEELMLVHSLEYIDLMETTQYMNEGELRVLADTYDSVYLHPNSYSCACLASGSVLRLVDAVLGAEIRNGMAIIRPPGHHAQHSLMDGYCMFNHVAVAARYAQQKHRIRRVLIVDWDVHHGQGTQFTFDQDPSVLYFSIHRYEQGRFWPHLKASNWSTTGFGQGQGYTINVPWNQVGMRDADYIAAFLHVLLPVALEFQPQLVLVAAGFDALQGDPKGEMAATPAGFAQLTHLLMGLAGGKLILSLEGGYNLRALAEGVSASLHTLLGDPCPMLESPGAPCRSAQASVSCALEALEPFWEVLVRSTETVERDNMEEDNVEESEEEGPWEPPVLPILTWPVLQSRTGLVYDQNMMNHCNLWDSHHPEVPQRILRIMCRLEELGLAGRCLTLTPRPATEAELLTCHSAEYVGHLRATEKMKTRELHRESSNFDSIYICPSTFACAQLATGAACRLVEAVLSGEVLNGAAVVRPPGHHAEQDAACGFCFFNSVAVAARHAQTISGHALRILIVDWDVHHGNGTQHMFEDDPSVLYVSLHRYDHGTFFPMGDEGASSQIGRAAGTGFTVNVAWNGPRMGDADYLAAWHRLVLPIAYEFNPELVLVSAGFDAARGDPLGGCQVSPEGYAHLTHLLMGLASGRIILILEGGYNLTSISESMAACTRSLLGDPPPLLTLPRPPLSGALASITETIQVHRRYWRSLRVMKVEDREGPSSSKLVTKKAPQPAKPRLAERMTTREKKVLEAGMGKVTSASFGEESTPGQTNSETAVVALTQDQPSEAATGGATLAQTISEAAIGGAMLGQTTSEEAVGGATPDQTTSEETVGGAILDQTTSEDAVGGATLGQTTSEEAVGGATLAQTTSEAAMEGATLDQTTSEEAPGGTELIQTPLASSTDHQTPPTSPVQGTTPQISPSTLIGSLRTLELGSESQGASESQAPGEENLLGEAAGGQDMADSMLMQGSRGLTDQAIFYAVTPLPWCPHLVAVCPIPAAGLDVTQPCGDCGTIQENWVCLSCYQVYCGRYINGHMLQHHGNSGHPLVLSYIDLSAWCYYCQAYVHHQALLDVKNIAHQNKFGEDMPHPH

Row | SMILES | IC50 [nM]
12 | O=C(NO)c1ccc(Cn2c3c(c4ccccc42)CCN(Cc2ccccc2)C3)cc1 | 0.872
13 | O=C(NO)c1ccc(Cn2c3c(c4ccccc42)CN(Cc2ccncc2)CC3)cc1 | 0.582
14 | O=C(NO)c1ccc(Cn2c3c(c4ccccc42)CCNC3)cc1 | 2.49
15 | CC(C)(C)OC(=O)N1CCc2c(c3ccccc3n2Cc2ccc(C(=O)NO)cc2)C1 | 2.25
16 | CN1CCc2c(c3cc(Br)ccc3n2Cc2ccc(C(=O)NO)cc2)C1 | 0.704
17 | O=C(NO)c1ccc(Cn2c3c(c4ccccc42)CNCC3)cc1 | 6.56
18 | CN1CCc2c(c3cc(C(C)(C)C)ccc3n2Cc2ccc(C(=O)NO)cc2)C1 | 22.5
19 | NC(=O)CCN1CCc2c(c3ccccc3n2Cc2ccc(C(=O)NO)cc2)C1 | 0.459
20 | CN1CCc2c(c3cc(Cl)ccc3n2Cc2ccc(C(=O)NO)cc2)C1 | 1.02
21 | NC(=O)CN1CCc2c(c3ccccc3n2Cc2ccc(C(=O)NO)cc2)C1 | 0.799
22 | COc1cccc(CN2CCc3c(c4ccccc4n3Cc3ccc(C(=O)NO)cc3)C2)c1 | 2.96

test system: not listed separately; assay: Immunosuppressive activity against C57BL/6 mouse CFSE-labelled effector T cells assessed as inhibition of T regulatory cell-mediated proliferation at Treg:Teff ratio of 1:4 at 0.5 uM after 3 to 4 days by flow cytometry (reference value: 74.2%); assay type: functional; details: C57BL/6, T-cell

Row | SMILES | inhibition at 0.5 µM [%]
23 | O=C(NO)c1ccc(Cn2c3c(c4ccccc42)CN(Cc2ccncc2)CC3)cc1 | 62.3

test system: not listed separately; assay: Immunosuppressive activity against C57BL/6 mouse CFSE-labelled effector T cells assessed as inhibition of T regulatory cell-mediated proliferation at Treg:Teff ratio of 1:8 at 0.5 uM after 3 to 4 days by flow cytometry (reference value: […]); assay type: functional; details: C57BL/6, T-cell

Row | SMILES | inhibition at 0.5 µM [%]
24 | O=C(NO)c1ccc(Cn2c3c(c4ccccc42)CN(Cc2ccncc2)CC3)cc1 | 69.7

test system: Mus musculus; assay: Immunosuppressive activity against HDAC6 deficient CD4+CD25- CFSE-labelled effector T cells xenografted in RAG-/- mouse assessed as inhibition of FoxP3+,CD4+CD25+ T regulatory cells-mediated proliferation at 1 mg/kg, ip administered qd for 7 days measured on day 8 by flow cytometry; assay type: functional, organism-based; set-up: dose 1 mg/kg; details: T-cell

Row | SMILES | inhibition
25 | O=C(NO)c1ccc(Cn2c3c(c4ccccc42)CN(Cc2ccncc2)CC3)cc1 | Active
26 | CN1CCc2c(c3cc(Br)ccc3n2Cc2ccc(C(=O)NO)cc2)C1 | Active

test system: not listed separately; assay: Immunosuppressive activity against C57BL/6 mouse CFSE-labelled effector T cells assessed as inhibition of T regulatory cell-mediated proliferation at Treg:Teff ratio of 1:4 at 1 uM after 3 to 4 days by flow cytometry (reference value: 74.2%); assay type: functional; details: C57BL/6, T-cell

Row | SMILES | inhibition at 1 µM [%]
27 | CN1CCc2c(c3ccccc3n2Cc2ccc(C(=O)NO)cc2)C1 [TUBASTATIN A] | 58.7

test system: T-cell; assay: Immunosuppressive activity against C57BL/6 mouse CFSE-labelled effector T cells assessed as inhibition of T regulatory cell-mediated cell division at Treg:Teff ratio of 1:1 at 0.5 uM after 3 to 4 days by flow cytometry (reference value: 42.2%); assay type: functional; details: C57BL/6, T-cell

Row | SMILES | inhibition at 0.5 µM [%]
28 | O=C(NO)c1ccc(Cn2c3c(c4ccccc42)CN(Cc2ccncc2)CC3)cc1 | 37.8

test system: T-cell; assay: Immunosuppressive activity against C57BL/6 mouse CFSE-labelled effector T cells assessed as inhibition of T regulatory cell-mediated cell division at Treg:Teff ratio of 1:2 at 0.5 uM after 3 to 4 days by flow cytometry (reference value: 64.8%); assay type: functional; details: C57BL/6, T-cell

Row | SMILES | inhibition at 0.5 µM [%]
29 | O=C(NO)c1ccc(Cn2c3c(c4ccccc42)CN(Cc2ccncc2)CC3)cc1 | 51.6

test system: not listed separately; assay: Immunosuppressive activity against C57BL/6 mouse CFSE-labelled effector T cells assessed as inhibition of T regulatory cells-mediated proliferation at Treg:Teff ratio of 1:2 at 1 uM after 3 to 4 days by flow cytometry (reference value: 64.8%); assay type: functional; details: C57BL/6, T-cell

Row | SMILES | inhibition at 1 µM [%]
30 | CN1CCc2c(c3ccccc3n2Cc2ccc(C(=O)NO)cc2)C1 [TUBASTATIN A] | 44.4

test system: T-cell; assay: Immunosuppressive activity against C57BL/6 mouse CFSE-labelled effector T cells assessed as inhibition of T regulatory cells-mediated proliferation at 0.25 uM after 3 to 4 days by flow cytometry relative to control; assay type: functional, cell-based; details: not given

Row | SMILES | inhibition
31 | CN1CCc2c(c3cc(Br)ccc3n2Cc2ccc(C(=O)NO)cc2)C1 | Active

target: Histone deacetylase 1 (Homo sapiens, UniProt Q13547); assay: Inhibition of human recombinant HDAC1 using RHKKAc peptide as substrate incubated for 5 to mins prior to substrate addition measured after 2 hrs; details: not given
Sequence (Q13547 whole entry): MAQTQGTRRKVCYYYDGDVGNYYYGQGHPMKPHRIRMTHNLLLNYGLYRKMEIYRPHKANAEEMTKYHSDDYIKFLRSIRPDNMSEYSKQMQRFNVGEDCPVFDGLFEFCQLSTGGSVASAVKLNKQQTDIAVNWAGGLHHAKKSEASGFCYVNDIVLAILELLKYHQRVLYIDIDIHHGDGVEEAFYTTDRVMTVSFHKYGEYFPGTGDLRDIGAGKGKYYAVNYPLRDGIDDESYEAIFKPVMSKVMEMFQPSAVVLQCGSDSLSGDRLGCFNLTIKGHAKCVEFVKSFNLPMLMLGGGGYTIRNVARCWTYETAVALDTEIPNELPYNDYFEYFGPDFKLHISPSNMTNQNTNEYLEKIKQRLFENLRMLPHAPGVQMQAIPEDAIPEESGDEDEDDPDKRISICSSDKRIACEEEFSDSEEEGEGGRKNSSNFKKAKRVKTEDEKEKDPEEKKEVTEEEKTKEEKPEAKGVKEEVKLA

Row | SMILES | IC50 [nM]
32 | O=C(NO)c1ccc(Cn2c3c(c4ccccc42)CCN(Cc2ccccc2)C3)cc1 | 4320
33 | O=C(NO)c1ccc(Cn2c3c(c4ccccc42)CN(Cc2ccncc2)CC3)cc1 | 2740
34 | O=C(NO)c1ccc(Cn2c3c(c4ccccc42)CCNC3)cc1 | 9700
35 | CC(C)(C)OC(=O)N1CCc2c(c3ccccc3n2Cc2ccc(C(=O)NO)cc2)C1 | 8620
36 | CN1CCc2c(c3cc(Br)ccc3n2Cc2ccc(C(=O)NO)cc2)C1 | 427
37 | O=C(NO)c1ccc(Cn2c3c(c4ccccc42)CNCC3)cc1 | 16400
38 | CN1CCc2c(c3cc(C(C)(C)C)ccc3n2Cc2ccc(C(=O)NO)cc2)C1 | 14100
39 | NC(=O)CCN1CCc2c(c3ccccc3n2Cc2ccc(C(=O)NO)cc2)C1 | 1610
40 | CN1CCc2c(c3cc(Cl)ccc3n2Cc2ccc(C(=O)NO)cc2)C1 | 1020
41 | NC(=O)CN1CCc2c(c3ccccc3n2Cc2ccc(C(=O)NO)cc2)C1 | 3980
42 | COc1cccc(CN2CCc3c(c4ccccc4n3Cc3ccc(C(=O)NO)cc3)C2)c1 | 5190

test system: not listed separately; assay: Immunosuppressive activity against C57BL/6 mouse CFSE-labelled effector T cells assessed as inhibition of T regulatory cells-mediated proliferation at Treg:Teff ratio of 1:1 at 1 uM after 3 to 4 days by flow cytometry (reference value: 42.2%); assay type: functional; details: C57BL/6, T-cell

Row | SMILES | inhibition at 1 µM [%]
43 | CN1CCc2c(c3ccccc3n2Cc2ccc(C(=O)NO)cc2)C1 [TUBASTATIN A] | 37.8

test system: not listed separately; assay: Immunosuppressive activity against C57BL/6 mouse CFSE-labelled effector T cells assessed as inhibition of T regulatory cell-mediated proliferation at Treg:Teff ratio of 1:16 at 0.5 uM after 3 to 4 days by flow cytometry (reference value: 86.9%); assay type: functional; details: C57BL/6, T-cell

Row | SMILES | inhibition at 0.5 µM [%]
44 | O=C(NO)c1ccc(Cn2c3c(c4ccccc42)CN(Cc2ccncc2)CC3)cc1 | 72.8

test system: not listed separately; assay: Immunosuppressive activity against C57BL/6 mouse CFSE-labelled effector T cells assessed as inhibition of T regulatory cells-mediated proliferation at Treg:Teff ratio of 1:16 at 1 uM after 3 to 4 days by flow cytometry (reference value: 86.9%); assay type: functional; details: C57BL/6, T-cell

Row | SMILES | inhibition at 1 µM [%]
45 | CN1CCc2c(c3ccccc3n2Cc2ccc(C(=O)NO)cc2)C1 [TUBASTATIN A] | 75.4

test system: not listed separately; assay: Immunosuppressive activity against C57BL/6 mouse CFSE-labelled effector T cells assessed as Treg suppression of Teffector proliferation AUC at 0.25 uM after 3 to 4 days by flow cytometry relative to control; assay type: functional, T-cell; details: not given

Row | SMILES | Ratio
46 | CN1CCc2c(c3cc(Br)ccc3n2Cc2ccc(C(=O)NO)cc2)C1 | 1.87

test system: not listed separately; assay: Immunosuppressive activity against C57BL/6 mouse CFSE-labelled effector T cells assessed as Treg suppression of Teffector proliferation AUC at 0.5 uM after 3 to 4 days by flow cytometry relative to control; assay type: functional, T-cell; details: not given

Row | SMILES | Ratio
47 | O=C(NO)c1ccc(Cn2c3c(c4ccccc42)CN(Cc2ccncc2)CC3)cc1 | 2.13
48 | COc1cccc(CN2CCc3c(c4ccccc4n3Cc3ccc(C(=O)NO)cc3)C2)c1 | 1.9

test system: not listed separately; assay: Immunosuppressive activity against C57BL/6 mouse CFSE-labelled effector T cells assessed as Treg suppression of Teffector proliferation AUC at […] after 3 to 4 days by flow cytometry relative to control; assay type: functional, T-cell; details: not given

Row | SMILES | Ratio
49 | O=C(NO)c1ccc(Cn2c3c(c4ccccc42)CNCC3)cc1 | 1.76
50 | NC(=O)CN1CCc2c(c3ccccc3n2Cc2ccc(C(=O)NO)cc2)C1 | 1.69
